Usually Kd stands for the free concentration of one partner at which half of the binding sites on the other are occupied at equilibrium, for simple one-to-one binding.

For assay [1], the target named is Tyrosine-protein kinase ABL1 (Homo sapiens, UniProt P00519).
The target in another assay is T1, Activin receptor type-1 (Homo sapiens, UniProt Q04771).
T1 sequence (Q04771 whole entry): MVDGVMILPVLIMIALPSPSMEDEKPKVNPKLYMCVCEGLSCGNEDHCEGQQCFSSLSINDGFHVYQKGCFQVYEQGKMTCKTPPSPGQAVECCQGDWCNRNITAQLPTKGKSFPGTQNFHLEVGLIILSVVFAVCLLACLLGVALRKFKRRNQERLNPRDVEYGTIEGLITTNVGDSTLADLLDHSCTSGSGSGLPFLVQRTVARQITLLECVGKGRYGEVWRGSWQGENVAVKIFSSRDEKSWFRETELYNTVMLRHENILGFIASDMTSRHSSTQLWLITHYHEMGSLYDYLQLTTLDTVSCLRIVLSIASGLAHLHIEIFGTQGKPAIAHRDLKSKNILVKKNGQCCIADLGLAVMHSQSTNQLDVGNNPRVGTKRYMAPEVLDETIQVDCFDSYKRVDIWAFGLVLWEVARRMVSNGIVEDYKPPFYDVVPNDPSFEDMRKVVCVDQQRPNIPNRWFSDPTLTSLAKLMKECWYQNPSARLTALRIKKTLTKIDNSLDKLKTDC

In assay [2] the target is Tyrosine-protein kinase CSK (Homo sapiens, UniProt P41240).
Chain of Tyrosine-protein kinase CSK (P41240 whole entry): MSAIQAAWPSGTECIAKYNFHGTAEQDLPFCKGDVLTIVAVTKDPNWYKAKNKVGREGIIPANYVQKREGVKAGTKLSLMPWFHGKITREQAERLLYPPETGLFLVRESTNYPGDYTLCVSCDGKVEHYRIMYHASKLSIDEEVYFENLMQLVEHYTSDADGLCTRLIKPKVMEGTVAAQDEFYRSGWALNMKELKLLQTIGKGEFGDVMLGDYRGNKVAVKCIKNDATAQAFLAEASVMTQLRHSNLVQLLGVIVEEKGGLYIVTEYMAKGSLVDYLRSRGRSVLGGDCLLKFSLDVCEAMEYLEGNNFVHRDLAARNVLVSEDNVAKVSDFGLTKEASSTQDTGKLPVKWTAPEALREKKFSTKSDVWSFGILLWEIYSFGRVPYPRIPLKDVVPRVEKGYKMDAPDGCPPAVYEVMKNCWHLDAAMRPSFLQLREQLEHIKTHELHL
Assay [3] addresses T2, ATP-dependent RNA helicase DDX42 (Homo sapiens, UniProt Q86XP3).
T2 sequence (Q86XP3 whole entry): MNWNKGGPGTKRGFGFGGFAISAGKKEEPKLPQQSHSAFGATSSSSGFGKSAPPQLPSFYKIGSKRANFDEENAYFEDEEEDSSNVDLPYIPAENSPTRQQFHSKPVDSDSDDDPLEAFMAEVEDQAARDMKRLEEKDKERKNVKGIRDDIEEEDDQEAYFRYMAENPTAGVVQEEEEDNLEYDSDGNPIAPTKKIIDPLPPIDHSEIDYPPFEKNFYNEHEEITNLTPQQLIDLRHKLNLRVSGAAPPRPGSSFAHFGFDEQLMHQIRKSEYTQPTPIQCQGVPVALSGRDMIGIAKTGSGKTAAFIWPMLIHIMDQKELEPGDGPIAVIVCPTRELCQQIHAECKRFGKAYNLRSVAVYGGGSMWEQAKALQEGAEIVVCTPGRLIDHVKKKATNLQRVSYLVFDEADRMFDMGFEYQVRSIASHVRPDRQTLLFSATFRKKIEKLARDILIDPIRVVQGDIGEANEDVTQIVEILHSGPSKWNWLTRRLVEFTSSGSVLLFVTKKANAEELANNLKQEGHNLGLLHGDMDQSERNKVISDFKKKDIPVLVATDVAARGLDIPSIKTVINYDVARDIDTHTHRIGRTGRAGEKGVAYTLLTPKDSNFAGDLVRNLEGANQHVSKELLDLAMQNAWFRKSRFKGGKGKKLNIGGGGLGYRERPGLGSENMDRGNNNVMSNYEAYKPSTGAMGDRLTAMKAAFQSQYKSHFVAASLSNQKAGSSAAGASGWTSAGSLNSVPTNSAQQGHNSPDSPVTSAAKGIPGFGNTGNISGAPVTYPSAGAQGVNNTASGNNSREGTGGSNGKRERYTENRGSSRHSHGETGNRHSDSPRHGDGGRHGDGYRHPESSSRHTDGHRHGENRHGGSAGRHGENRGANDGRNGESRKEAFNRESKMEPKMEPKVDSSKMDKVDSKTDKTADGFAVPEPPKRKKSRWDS

Assay [4] deals with T3, Delta(24)-sterol reductase (Homo sapiens, UniProt Q15392).
T3 sequence (Q15392 whole entry): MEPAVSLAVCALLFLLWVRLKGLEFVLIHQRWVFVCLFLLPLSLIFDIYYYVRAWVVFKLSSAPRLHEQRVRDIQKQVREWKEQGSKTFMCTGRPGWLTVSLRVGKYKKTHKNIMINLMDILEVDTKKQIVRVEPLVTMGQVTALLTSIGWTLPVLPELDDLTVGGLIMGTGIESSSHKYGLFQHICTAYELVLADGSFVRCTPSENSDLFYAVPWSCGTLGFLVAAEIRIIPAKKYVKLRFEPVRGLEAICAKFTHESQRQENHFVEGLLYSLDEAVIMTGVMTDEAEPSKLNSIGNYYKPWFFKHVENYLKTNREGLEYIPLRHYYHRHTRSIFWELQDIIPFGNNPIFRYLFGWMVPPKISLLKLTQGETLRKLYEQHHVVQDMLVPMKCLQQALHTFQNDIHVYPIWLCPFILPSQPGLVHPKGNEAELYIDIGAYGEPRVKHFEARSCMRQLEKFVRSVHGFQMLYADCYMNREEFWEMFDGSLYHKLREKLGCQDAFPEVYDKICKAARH

For assay [5], the target named is Tyrosine-protein kinase Fyn (Homo sapiens, UniProt P06241).
Chain of Tyrosine-protein kinase Fyn (P06241 whole entry): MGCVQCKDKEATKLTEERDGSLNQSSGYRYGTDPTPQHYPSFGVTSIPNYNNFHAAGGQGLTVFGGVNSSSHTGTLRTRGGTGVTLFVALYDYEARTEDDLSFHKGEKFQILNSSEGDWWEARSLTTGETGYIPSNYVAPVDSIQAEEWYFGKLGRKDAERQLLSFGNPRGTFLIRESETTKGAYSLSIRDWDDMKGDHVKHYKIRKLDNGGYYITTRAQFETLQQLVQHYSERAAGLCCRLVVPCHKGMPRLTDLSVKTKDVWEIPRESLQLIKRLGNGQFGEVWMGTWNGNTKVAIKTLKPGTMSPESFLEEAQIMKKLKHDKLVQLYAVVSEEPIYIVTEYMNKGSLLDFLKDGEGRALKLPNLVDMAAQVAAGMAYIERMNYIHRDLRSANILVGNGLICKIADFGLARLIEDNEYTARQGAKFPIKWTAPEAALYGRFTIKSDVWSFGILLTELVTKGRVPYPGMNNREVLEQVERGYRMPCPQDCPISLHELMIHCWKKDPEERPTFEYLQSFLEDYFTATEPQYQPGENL
In assay [6] the target is Mitogen-activated protein kinase 7 (Homo sapiens, UniProt Q13164).
Chain of Mitogen-activated protein kinase 7 (Q13164 whole entry): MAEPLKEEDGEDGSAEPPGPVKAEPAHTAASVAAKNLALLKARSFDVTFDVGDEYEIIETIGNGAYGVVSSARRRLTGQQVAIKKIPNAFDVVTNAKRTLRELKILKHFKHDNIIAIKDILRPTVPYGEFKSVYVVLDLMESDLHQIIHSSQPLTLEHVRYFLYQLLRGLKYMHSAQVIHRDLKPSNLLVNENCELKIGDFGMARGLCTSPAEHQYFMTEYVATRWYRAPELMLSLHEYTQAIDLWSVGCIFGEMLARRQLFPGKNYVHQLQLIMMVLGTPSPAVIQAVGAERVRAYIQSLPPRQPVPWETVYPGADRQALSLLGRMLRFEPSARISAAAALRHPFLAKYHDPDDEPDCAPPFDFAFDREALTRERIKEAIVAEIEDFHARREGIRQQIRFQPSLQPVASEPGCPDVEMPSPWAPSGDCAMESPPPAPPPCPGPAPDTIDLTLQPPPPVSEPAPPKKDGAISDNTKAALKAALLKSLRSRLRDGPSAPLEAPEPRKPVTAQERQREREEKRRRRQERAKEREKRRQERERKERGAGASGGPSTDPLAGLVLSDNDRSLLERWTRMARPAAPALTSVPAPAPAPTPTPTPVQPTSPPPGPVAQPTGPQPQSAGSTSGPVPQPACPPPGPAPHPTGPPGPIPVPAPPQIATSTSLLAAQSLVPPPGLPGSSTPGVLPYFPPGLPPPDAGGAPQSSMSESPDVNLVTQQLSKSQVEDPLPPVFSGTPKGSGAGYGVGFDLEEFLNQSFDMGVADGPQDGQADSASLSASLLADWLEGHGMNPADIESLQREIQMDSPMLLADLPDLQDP
The target of assay [7] is Macrophage-stimulating protein receptor (Homo sapiens, UniProt Q04912).
Chain of Macrophage-stimulating protein receptor (Q04912 25-304 limits assumed): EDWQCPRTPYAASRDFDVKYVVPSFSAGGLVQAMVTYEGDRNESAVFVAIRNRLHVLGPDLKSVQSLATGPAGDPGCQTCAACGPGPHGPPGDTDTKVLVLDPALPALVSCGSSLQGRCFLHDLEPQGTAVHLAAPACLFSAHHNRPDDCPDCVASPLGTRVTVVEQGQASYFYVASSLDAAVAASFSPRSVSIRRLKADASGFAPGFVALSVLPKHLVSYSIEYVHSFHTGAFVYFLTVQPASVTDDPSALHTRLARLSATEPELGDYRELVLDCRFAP
Chain of Macrophage-stimulating protein receptor (Q04912 310-1400 limits assumed): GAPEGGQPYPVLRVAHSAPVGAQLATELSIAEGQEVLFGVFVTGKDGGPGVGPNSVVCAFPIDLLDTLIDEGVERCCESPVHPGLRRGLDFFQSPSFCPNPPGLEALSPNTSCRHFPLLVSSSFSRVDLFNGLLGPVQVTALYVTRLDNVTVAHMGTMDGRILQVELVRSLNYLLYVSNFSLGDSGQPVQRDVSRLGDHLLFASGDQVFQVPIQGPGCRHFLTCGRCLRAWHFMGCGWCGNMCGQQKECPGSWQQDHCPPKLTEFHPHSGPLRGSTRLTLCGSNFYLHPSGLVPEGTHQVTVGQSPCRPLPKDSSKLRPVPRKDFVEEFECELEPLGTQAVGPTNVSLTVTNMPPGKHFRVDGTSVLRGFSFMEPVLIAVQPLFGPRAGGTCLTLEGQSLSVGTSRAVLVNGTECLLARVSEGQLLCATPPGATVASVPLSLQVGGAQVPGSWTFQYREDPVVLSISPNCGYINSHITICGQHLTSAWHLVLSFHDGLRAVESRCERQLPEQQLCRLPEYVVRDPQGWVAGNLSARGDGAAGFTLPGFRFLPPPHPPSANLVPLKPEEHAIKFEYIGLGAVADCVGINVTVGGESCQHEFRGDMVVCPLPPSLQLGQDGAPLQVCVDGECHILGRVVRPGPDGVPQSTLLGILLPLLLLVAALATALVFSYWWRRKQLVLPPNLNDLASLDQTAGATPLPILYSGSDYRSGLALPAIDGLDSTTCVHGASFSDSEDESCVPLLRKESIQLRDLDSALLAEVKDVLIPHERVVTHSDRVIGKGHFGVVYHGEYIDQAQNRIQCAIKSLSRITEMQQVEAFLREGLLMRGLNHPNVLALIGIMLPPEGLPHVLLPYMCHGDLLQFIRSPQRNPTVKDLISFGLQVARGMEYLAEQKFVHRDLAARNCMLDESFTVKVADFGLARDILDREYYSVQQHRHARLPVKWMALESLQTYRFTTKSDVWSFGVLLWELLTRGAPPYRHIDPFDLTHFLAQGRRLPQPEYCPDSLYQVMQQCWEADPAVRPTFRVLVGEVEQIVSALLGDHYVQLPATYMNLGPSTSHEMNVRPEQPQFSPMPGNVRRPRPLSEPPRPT
In assay [8] the target is cAMP-dependent protein kinase catalytic subunit alpha (Homo sapiens, UniProt P17612).
The target in assay [9] is Receptor-interacting serine/threonine-protein kinase 2 (Homo sapiens, UniProt O43353).
Chain of Receptor-interacting serine/threonine-protein kinase 2 (O43353 whole entry): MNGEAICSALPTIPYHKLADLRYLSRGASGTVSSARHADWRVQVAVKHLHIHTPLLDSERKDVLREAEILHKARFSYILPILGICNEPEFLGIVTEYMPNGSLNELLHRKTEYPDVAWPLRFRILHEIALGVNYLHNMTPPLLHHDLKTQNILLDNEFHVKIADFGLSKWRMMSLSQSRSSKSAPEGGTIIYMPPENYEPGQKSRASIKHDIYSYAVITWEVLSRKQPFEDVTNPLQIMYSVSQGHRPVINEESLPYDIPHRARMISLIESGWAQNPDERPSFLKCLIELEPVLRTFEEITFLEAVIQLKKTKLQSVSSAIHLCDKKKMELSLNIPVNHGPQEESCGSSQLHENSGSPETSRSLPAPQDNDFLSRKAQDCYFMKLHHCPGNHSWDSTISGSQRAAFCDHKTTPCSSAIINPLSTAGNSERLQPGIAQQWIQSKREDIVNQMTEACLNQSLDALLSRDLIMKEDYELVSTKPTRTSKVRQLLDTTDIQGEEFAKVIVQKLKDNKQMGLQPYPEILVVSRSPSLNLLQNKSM
In assay [10] the target is Ribosomal protein S6 kinase alpha-4 (Homo sapiens, UniProt O75676).
Chain of Ribosomal protein S6 kinase alpha-4 (O75676 whole entry): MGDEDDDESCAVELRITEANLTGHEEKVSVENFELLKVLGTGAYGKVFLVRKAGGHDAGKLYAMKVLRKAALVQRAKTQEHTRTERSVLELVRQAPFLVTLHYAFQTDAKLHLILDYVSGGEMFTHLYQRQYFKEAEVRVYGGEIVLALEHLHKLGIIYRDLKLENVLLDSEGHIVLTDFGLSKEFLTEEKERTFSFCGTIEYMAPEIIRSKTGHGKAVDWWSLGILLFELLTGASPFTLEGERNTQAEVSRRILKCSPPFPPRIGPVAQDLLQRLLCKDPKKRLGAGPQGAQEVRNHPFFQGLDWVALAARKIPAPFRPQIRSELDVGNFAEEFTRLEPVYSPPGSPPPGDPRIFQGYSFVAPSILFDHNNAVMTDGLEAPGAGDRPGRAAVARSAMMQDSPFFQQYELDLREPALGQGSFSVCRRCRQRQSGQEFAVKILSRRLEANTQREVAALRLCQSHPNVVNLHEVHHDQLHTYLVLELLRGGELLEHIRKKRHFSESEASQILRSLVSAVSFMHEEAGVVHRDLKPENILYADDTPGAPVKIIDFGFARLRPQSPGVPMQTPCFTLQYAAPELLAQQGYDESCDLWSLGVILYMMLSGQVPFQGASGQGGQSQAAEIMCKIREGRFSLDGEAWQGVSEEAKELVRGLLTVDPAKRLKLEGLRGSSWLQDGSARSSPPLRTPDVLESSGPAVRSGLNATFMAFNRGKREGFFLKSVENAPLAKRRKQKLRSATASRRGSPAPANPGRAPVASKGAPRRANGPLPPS
Another assay addresses T4, ADP/ATP translocase 2 (Homo sapiens, UniProt P05141).
T4 sequence (P05141 whole entry): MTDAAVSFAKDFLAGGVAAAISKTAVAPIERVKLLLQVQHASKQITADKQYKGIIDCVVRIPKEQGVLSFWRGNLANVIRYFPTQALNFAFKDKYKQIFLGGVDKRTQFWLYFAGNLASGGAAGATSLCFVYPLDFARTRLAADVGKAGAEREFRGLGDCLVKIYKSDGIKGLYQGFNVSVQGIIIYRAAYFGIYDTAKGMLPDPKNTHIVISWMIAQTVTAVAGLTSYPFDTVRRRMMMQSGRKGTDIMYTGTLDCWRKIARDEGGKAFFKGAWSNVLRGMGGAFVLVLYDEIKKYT

Assay [11] has as its target Elongation factor Tu, mitochondrial (Homo sapiens, UniProt P49411).

Calls of active or inactive are those of the source. For most assays here, no stated cut-off is given here; in the data, actives have a measured Kd and inactives only a lower limit. Bounds are passed on as bounds.

On to `O=C(NOC[C@H](O)CO)c1ccc(F)c(F)c1Nc1ccc(I)cc1F` [MIRDAMETINIB], for which the Kd (in assay [1]; on Activin receptor type-1; in [2]; in [3]; in assay [4]; in assay [5]) was > 30 µM (inactive) in each case. Moreover, the Kd (in assay [6]; in assay [7]; in [8]; in assay [9]; in [10]; at ADP/ATP translocase 2) was > 30 µM (inactive) each time. In addition, the Kd in assay [11] was > 30 µM (inactive).
With `CC1(COc2ccc3c(c2)ncn3-c2ccc3cccc(N4CCC(N)CC4)c3n2)COC1` [CRENOLANIB], the Kd (in assay [1]; on Activin receptor type-1; in [2]; in assay [3]; in assay [4]; in [5]) was > 30 µM (inactive) in each case. Besides, the Kd was > 30 µM (inactive) in [6]; > 30 µM (inactive) in assay [7]; > 30 µM (inactive) in assay [8]; 1.31 µM (active) in assay [9]; > 30 µM (inactive) in assay [10]; > 30 µM (inactive) on ADP/ATP translocase 2. Also, the Kd in assay [11] is > 30 µM (inactive).
Turning to `COc1ccc2c(OCc3nnc4ccc(-c5ccccc5)nn34)ccnc2c1` [AMG-208], the Kd (in assay [1]; at Activin receptor type-1; in assay [2]; in assay [3]; in [4]; in [5]) was > 30 µM (inactive) throughout. In addition, the Kd (in assay [6]; in [7]; in assay [8]; in assay [9]; in [10]; on ADP/ATP translocase 2) was > 30 µM (inactive) each time. In addition, in [11], the Kd was > 30 µM (inactive).
`COc1ccc(-c2ccc3ncc4c(c3c2)n(-c2ccc(N3CCNCC3)c(C(F)(F)F)c2)c(=O)n4C)cn1` [BGT-226 FREE BASE]: the Kd (in assay [1]; on Activin receptor type-1; in [2]; in assay [3]; in assay [4]; in [5]) was > 30 µM (inactive) throughout. For the same compound, the Kd (in [6]; in assay [7]; in assay [8]; in assay [9]; in assay [10]; on ADP/ATP translocase 2) was > 30 µM (inactive) throughout. Moreover, the Kd in assay [11] was > 30 µM (inactive).

(Values after ChEMBL document CHEMBL3991601, “The target landscape of clinical kinase drugs” (Science, 2017).)
